Experiments:
Adenosine receptor A3 [1] = molecular target: T1, Adenosine receptor A3 (Homo sapiens, UniProt P0DMS8); assay: Displacement of [125I]AB-MECA from human recombinant adenosine A3 receptor expressed in CHO cells after 60 mins by gamma counting
T1 sequence (P0DMS8 whole entry): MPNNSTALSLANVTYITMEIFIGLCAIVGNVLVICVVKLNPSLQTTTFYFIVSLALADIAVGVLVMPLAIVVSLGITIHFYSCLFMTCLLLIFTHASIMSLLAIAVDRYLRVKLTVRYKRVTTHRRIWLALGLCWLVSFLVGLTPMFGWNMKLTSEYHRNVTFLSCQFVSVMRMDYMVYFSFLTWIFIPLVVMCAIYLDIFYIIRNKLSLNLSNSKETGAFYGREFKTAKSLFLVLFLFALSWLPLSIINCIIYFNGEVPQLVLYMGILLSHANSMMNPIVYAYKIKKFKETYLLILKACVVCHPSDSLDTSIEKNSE

Adenosine receptor A2a [2] = molecular target: T2, Adenosine receptor A2a (Homo sapiens, UniProt P29274); assay: Inhibition of [3H]CGS21680 binding to human adenosine A2A receptor expressed in HEK293 cells at 10 uM after 60 mins by liquid scintillation counting; assay type: cell-based
[3] = molecular target: T3, Adenosine receptor A3 (Homo sapiens) (UniProt P0DMS8); assay: Agonist activity at human recombinant adenosine A3 receptor expressed in CHO cells assessed as inhibition of forskolin-stimulated cAMP production at 10 uM treated 45 mins before forskolin challenge measured after 15 mins by radioimmunoassay relative to NECA; assay type: functional, cell-based
T3 sequence (whole entry): T1 sequence (P0DMS8 whole entry)

[4] = molecular target: T4, Adenosine receptor A1 (Homo sapiens) (UniProt P30542); assay: Inhibition of [3H]NECA binding to human recombinant adenosine A1 receptor expressed in CHO cells at 10 uM after 60 mins by liquid scintillation counting; assay type: cell-based
T4 sequence (whole entry): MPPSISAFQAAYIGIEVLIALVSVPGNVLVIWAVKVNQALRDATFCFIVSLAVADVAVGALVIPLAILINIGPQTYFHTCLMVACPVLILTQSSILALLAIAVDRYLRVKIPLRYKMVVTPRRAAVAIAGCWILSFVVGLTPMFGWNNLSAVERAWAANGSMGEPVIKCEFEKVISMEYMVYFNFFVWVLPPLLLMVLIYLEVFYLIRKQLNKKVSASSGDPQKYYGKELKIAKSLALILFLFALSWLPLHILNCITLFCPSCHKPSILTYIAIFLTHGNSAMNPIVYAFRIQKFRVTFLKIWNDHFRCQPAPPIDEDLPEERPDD

Adenosine receptor A1 [5] = molecular target: T5, Adenosine receptor A1 (Homo sapiens, UniProt P30542); assay: Displacement of [3H]CCPA from human recombinant adenosine A1 receptor expressed in CHO cells after 60 mins by liquid scintillation counting; assay type: cell-based
T5 sequence (P30542 whole entry): T4 sequence (whole entry)

Adenosine receptor A2a [6] = molecular target: T2, Adenosine receptor A2a; assay: Displacement of [3H]CGS21680 from human adenosine A2A receptor expressed in HEK293 cells after 60 mins by liquid scintillation counting; assay type: cell-based
[7] = molecular target: Adenosine receptors; A1 & A3 (Homo sapiens) (UniProt P30542+P0DMS8); assay: Selectivity for human recombinant adenosine A3 receptor over human recombinant adenosine A1 receptor
Adenosine receptor A3 [8] = molecular target: T6, Adenosine receptor A3 (Rattus norvegicus, UniProt P28647); assay: Binding affinity to rat adenosine A3 receptor expressed in CHO cells; assay type: cell-based
T6 sequence (P28647 whole entry): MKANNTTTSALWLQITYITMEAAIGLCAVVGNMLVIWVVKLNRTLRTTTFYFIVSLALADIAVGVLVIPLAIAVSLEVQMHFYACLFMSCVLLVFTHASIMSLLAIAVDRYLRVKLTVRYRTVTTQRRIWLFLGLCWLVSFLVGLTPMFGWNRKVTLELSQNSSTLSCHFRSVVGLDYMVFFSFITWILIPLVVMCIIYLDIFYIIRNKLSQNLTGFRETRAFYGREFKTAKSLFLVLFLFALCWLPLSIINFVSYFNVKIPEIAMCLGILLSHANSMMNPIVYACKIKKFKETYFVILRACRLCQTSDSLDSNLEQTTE

Homo sapiens = organism: Homo sapiens; assay: Selectivity for human recombinant adenosine A3 receptor over human recombinant adenosine A2A receptor
Adenosine receptor A1 [9] = molecular target: T5, Adenosine receptor A1; assay: Displacement of [3H]NECA from human recombinant adenosine A1 receptor expressed in CHO cells after 60 mins by liquid scintillation counting; assay type: cell-based
Adenosine receptor A3 [10] = molecular target: T1, Adenosine receptor A3; assay: Agonist activity at human recombinant adenosine A3 receptor expressed in CHO cells assessed as inhibition of forskolin-stimulated cAMP production treated 45 mins before forskolin challenge measured after 15 mins by radioimmunoassay relative to NECA; assay type: functional, cell-based
[11] = molecular target: T4, Adenosine receptor A1 (Homo sapiens); assay: Inhibition of [3H]CCPA binding to human recombinant adenosine A1 receptor expressed in CHO cells at 10 uM after 60 mins by liquid scintillation counting; assay type: cell-based
[12] = molecular target: T3, Adenosine receptor A3 (Homo sapiens); settings: CHO, 10 uM
Description: Inhibition of [125I]AB-MECA binding to human recombinant adenosine A3 receptor expressed in CHO cells at 10 uM after 60 mins by liquid scintillation counting

T2 sequence (P29274 whole entry): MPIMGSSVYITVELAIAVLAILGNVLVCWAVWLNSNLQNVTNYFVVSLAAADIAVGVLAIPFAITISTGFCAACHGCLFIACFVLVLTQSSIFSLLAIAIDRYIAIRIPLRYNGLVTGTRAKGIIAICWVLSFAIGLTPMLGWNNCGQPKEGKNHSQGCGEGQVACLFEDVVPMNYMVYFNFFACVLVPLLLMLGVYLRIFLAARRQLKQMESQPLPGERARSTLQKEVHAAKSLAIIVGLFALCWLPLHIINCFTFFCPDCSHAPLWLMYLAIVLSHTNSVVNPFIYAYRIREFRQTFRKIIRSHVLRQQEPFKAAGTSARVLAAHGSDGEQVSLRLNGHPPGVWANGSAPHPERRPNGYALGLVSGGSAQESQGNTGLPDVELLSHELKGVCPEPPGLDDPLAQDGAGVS

SMILES | Ki (Adenosine receptor A3 [1]) | inhibition (Adenosine receptor A2a [2]) | Efficacy [3] | inhibition [4] | Ki (Adenosine receptor A2a [6]) | further results
CNC(=O)[C@]12C[C@@H]1[C@@H](n1cnc3c(NCc4cccc(Cl)c4)nc(C#CCCC(=O)OC)nc31)[C@H](O)[C@@H]2O | 0.0055 µM | 43% | 90% | 41% | – | –
CNC(=O)[C@]12C[C@@H]1[C@@H](n1cnc3c(NCc4cccc(Cl)c4)nc(C#CCCCC(=O)NCCN)nc31)[C@H](O)[C@@H]2O | 0.00217 µM | 81% | – | – | – | Ki (Adenosine receptor A1 [5]): 0.454 µM
CNC(=O)[C@]12C[C@@H]1[C@@H](n1cnc3c(NCc4cccc(I)c4)ncnc31)[C@H](O)[C@@H]2O | 0.0024 µM | – | 100% | – | 6.2 µM | Ki (Adenosine receptor A1 [5]): 0.7 µM
CNC(=O)[C@]12C[C@@H]1[C@@H](n1cnc3c(NCc4cccc(Cl)c4)nc(C#CCCCC(=O)OC)nc31)[C@H](O)[C@@H]2O | – | 49% | – | – | – | Ki (Adenosine receptor A1 [5]): 0.482 µM
CNC(=O)[C@]12C[C@@H]1[C@@H](n1cnc3c(NCc4cccc(Cl)c4)nc(C#CCCC(=O)NCCCCN)nc31)[C@H](O)[C@@H]2O | 0.0021 µM | – | 102% | 30% | 0.766 µM | fold change (FC) [7]: 360; Ki (Adenosine receptor A3 [8]): 0.00868 µM; fold change (FC) (Homo sapiens): > 5000
CNC(=O)[C@]12C[C@@H]1[C@@H](n1cnc3c(NCc4cccc(Cl)c4)nc(C#CCCC(=O)NCCN)nc31)[C@H](O)[C@@H]2O | 0.0025 µM | – | 96.9% | – | 0.55 µM | Ki (Adenosine receptor A1 [9]): 2.32 µM
CNC(=O)[C@]12C[C@@H]1[C@@H](n1cnc3c(NCc4cccc(Cl)c4)nc(C#CCCC(=O)O)nc31)[C@H](O)[C@@H]2O | 0.0611 µM | 24% | 106% | 17% | – | –
CNC(=O)[C@]12C[C@@H]1[C@@H](n1cnc3c(NCc4cccc(Cl)c4)nc(C#CCCCCC(=O)OC)nc31)[C@H](O)[C@@H]2O | 0.0111 µM | – | 85% | 20% | 3.54 µM | –
CNC(=O)[C@]12C[C@H]1[C@@H](n1cnc3c(NCc4cccc(Cl)c4)nc(C#CCCCC(=O)O)nc31)[C@@H](O)[C@H]2O | – | 9% | – | – | – | –
O[C@@H]1[C@H](O)[C@@H]2C[C@@H]2[C@H]1n1cnc2c(NCc3cccc(I)c3)ncnc21 | – | – | 80.8% | – | – | Ki (Adenosine receptor A1 [9]): 0.839 µM
O[C@@H]1[C@H](O)[C@@H]2C[C@@H]2[C@H]1n1cnc2c(NCc3cccc(I)c3)nc(Cl)nc21 | – | – | 44% | – | – | EC50 (Adenosine receptor A3 [10]): 0.012 µM
CNC(=O)[C@]12C[C@@H]1[C@@H](n1cnc3c(NCc4cccc(Cl)c4)nc(C#CCCCCC(=O)O)nc31)[C@H](O)[C@@H]2O | 0.0124 µM | 38% | 74.4% | 11% | – | –
CNC(=O)[C@]12C[C@@H]1[C@@H](n1cnc3c(NCc4cccc(Cl)c4)nc(C#CCCC(=O)NCCNC(=O)CCCC[C@H]4SC[C@H]5NC(=O)N[C@H]54)nc31)[C@H](O)[C@@H]2O | 0.0364 µM | 51% | 84.5% | 1% | – | IC50 (Adenosine receptor A3 [10]): 0.0025 µM
CNC(=O)[C@]12C[C@@H]1[C@@H](n1cnc3c(NC4CCCC4)nc(Cl)nc31)[C@H](O)[C@@H]2O | – | – | 101% | – | – | –
CNC(=O)[C@]12C[C@H]1[C@@H](n1cnc3c(NCc4cccc(Cl)c4)nc(C#CCCCCC(=O)NCCN)nc31)[C@@H](O)[C@H]2O | 4.63 µM | 5% | 52% | – | – | inhibition [11]: 36%
CNC(=O)[C@]12C[C@@H]1[C@@H](n1cnc3c(NCc4cccc(Cl)c4)nc(Cl)nc31)[C@H](O)[C@@H]2O | – | – | – | – | 2.3 µM | Ki (Adenosine receptor A1 [5]): 0.26 µM
CNC(=O)[C@]12C[C@@H]1[C@@H](n1cnc3c(NCc4cccc(Cl)c4)nc(C#CCCC(=O)NCCCN)nc31)[C@H](O)[C@@H]2O | 0.0031 µM | – | 97.9% | 31% | 0.979 µM | –
O[C@@H]1[C@H](O)[C@@H]2C[C@@H]2[C@H]1n1cnc2c(NCc3cccc(I)c3)nc(F)nc21 | 0.0107 µM | – | 19% | – | 4 µM | Ki (Adenosine receptor A1 [9]): 0.513 µM
CNC(=O)C12C[C@@H]1[C@@H](n1cnc3c(NCc4cccc(Cl)c4)nc(C#CCCCC(=O)O)nc31)[C@H](O)[C@@H]2O (single isomer, unassigned) | – | – | – | – | – | Ki (Adenosine receptor A3 [8]): 0.0665 µM
CNC(=O)[C@]12C[C@@H]1[C@@H](n1cnc3c(NCc4cccc(Cl)c4)nc(C#CCCCCC(=O)NCCN)nc31)[C@H](O)[C@@H]2O | 0.0034 µM | – | 100% | 47% | 0.277 µM | –
O[C@@H]1[C@H](O)[C@@H]2C[C@@H]2[C@H]1n1cnc2c(NC3CCCC3)nc(Cl)nc21 | 0.12 µM | – | 95.1% | – | 1.64 µM | Ki (Adenosine receptor A1 [9]): 0.109 µM
CNC(=O)[C@]12C[C@@H]1[C@@H](n1cnc3c(NCc4cccc(Cl)c4)nc(C#CCCC(=O)NCCNCCN)nc31)[C@H](O)[C@@H]2O | 0.0154 µM | – | 87.6% | 33% | 0.89 µM | –
O[C@@H]1[C@H](O)[C@@H]2C[C@@H]2[C@H]1n1cnc2c(NCc3cccc(Cl)c3)ncnc21 | 0.0049 µM | – | 58.3% | – | 4.52 µM | Ki (Adenosine receptor A1 [9]): 1.6 µM; Ki (Adenosine receptor A3 [8]): 0.0203 µM
NCCNC(=O)CCC#Cc1nc(NCc2cccc(Cl)c2)c2ncn([C@H]3[C@H](O)[C@H](O)[C@@H]4C[C@@H]43)c2n1 | 0.404 µM | 35% | 0.9% | 15% | – | fold change (FC) [7]: > 20; fold change (FC) (Homo sapiens): > 20
CNC(=O)[C@]12C[C@@H]1[C@@H](n1cnc3c(NCc4cccc(Cl)c4)nc(C#CCCC(=O)NCCNC(=O)CCCCCNC(=O)CCCC[C@H]4SC[C@H]5NC(=O)N[C@H]54)nc31)[C@H](O)[C@@H]2O | 0.0577 µM | 47% | 107% | 12% | – | fold change (FC) [7]: > 170; fold change (FC) (Homo sapiens): 66
CNC(=O)[C@]12C[C@H]1[C@@H](n1cnc3c(NCc4cccc(Cl)c4)nc(C#CCCC(=O)NCCN)nc31)[C@@H](O)[C@H]2O | – | 8% | 25.6% | – | – | inhibition [11]: 33%; inhibition [12]: 30%

— ChEMBL document CHEMBL1154768 (J Med Chem, 2009)
